In patent US6472348B1, “Pyridone derivatives and herbicides” (Kumiai Chemical Industry Co., Ltd., priority 1996, dated 2002):

What was measured:
[1] = test system: barnyardgrass (Ec); experiment: Test Example 1: herbicidal effects by paddy field soil treatment; assay type: in vivo; conditions: 100 g of the active ingredient per 10 ares, 21st day after the application, index 0-5 of Table 47;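 also: grade of growth control; 5 = at least 90%; 4 = 70 to 90%; 3 = 50 to 70%; 2 = 30 to 50%; 1 = 10 to 30%; 0 = under 10%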
How it was run: (§1)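 Scoring of herbicidal effect came 21 days after application of 100 g active ingredient per 10 ares to flooded (3 cm) paddy-soil pots sown with barnyardgrass, monochoria and bulrush, kept in a greenhouse.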

[2] = test system: bulrush (Sc); experiment: as above; assay type: in vivo; conditions: 100 g of the active ingredient per 10 ares, 21st day after the application, index 0-5 of Table 47;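 also: grade of growth control; 5 = at least 90%; 4 = 70 to 90%; 3 = 50 to 70%; 2 = 30 to 50%; 1 = 10 to 30%; 0 = under 10%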
How it was run: as §1

[3] = test system: monochoria (Mo); experiment: as above; assay type: in vivo; conditions: 100 g of the active ingredient per 10 ares, 21st day after the application, index 0-5 of Table 47;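 also: grade of growth control; 5 = at least 90%; 4 = 70 to 90%; 3 = 50 to 70%; 2 = 30 to 50%; 1 = 10 to 30%; 0 = under 10%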
How it was run: as §1

[4] = test system: Digitaria ciliaris (Di); experiment: Test Example 2: herbicidal effects by upland field soil treatment; assay type: in vivo; conditions: 100 g of the active ingredient per 10 ares;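 also: grade of growth control; 5 = at least 90%; 4 = 70 to 90%; 3 = 50 to 70%; 2 = 30 to 50%; 1 = 10 to 30%; 0 = under 10%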
Text: (§2) (Test on Herbicidal Effects by Upland Field Soil Treatment)

[5] = test system: barnyardgrass (Ec); experiment: as above; assay type: in vivo; conditions: 100 g of the active ingredient per 10 ares
Text: as §2

[6] = test system: common lambsquarters (Ch); experiment: as above; assay type: in vivo; conditions: 100 g of the active ingredient per 10 ares
Text: as §2

[7] = test system: pale smartweed (Po); experiment: as above; assay type: in vivo; conditions: 100 g of the active ingredient per 10 ares
Text: as §2

[8] = test system: rice flatsedge (Ci); experiment: as above; assay type: in vivo; conditions: 100 g of the active ingredient per 10 ares
Text: as §2

[9] = test system: slender amaranth (Am); experiment: as above; assay type: in vivo; conditions: 100 g of the active ingredient per 10 ares
Text: as §2

[10] = test system: Diaitaria ciliaris (Di); experiment: Test Example 3: herbicidal effects by upland field foliage treatment; assay type: in vivo; set-up: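 grade of growth control; 5 = at least 90%; 4 = 70 to 90%; 3 = 50 to 70%; 2 = 30 to 50%; 1 = 10 to 30%; 0 = under 10%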
How it was run: (§3)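 Weeds sown in sand-filled pots and grown 2 weeks in a greenhouse before foliage treatment. Plants then kept in the greenhouse; herbicidal effect scored on day 14 after treatment against a graded standard scale.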

[11] = test system: barnyardgrass (Ec); experiment: as above; assay type: in vivo; set-up: scale not given here
How it was run: as §3

[12] = test system: common lambsquarters (Ch); experiment: as above; assay type: in vivo; set-up: scale not given here
How it was run: as §3

[13] = test system: pale smartweed (Po); experiment: as above; assay type: in vivo; set-up: scale not given here
How it was run: as §3

[14] = test system: rice flatsedge (Ci); experiment: as above; assay type: in vivo; set-up: scale not given here
How it was run: as §3

[15] = test system: slender amaranth (Am); experiment: as above; assay type: in vivo; set-up: scale not given here
How it was run: as §3

[16] = test system: wheat (Tr); experiment: Test Example 9: crop plant selectivity by upland field foliage treatment (wheat), phytotoxicity; conditions: dose 1.6 g ai/10a, 14th day after treatment
Procedure: (§4) (Test on Crop Plant Selectivity by Upland Field Foliage Treatment)
(§5) In a plastic pot (surface area: 600 cm^2) filled with sand, wheat (Tr), pale smartweed (Po), slender amaranth (Am), common lambsquarters (Ch) and China jute (Ab) were sown and cultured in a green house for 2 weeks. […] The plants were then cultured in a green house, and the evaluation of the herbicidal effects and phytotoxicity was conducted on the 14th day after the treatment in accordance with the standards as identified in Table 47.

[17] = test system: China jute (Ab); experiment: Test Example 9: crop plant selectivity by upland field foliage treatment (wheat), herbicidal effects; assay type: in vivo; set-up: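 grade of growth control; 5 = at least 90%; 4 = 70 to 90%; 3 = 50 to 70%; 2 = 30 to 50%; 1 = 10 to 30%; 0 = under 10%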; conditions: dose 1.6 g ai/10a, 14th day after treatment
Procedure: as §4, §5

[18] = test system: common lambsquarters (Ch); experiment: as above; assay type: in vivo; set-up: scale not given here; conditions: dose 1.6 g ai/10a, 14th day after treatment
Procedure: as §4, §5

[19] = test system: pale smartweed (Po); experiment: as above; assay type: in vivo; set-up: scale not given here; conditions: dose 1.6 g ai/10a, 14th day after treatment
Procedure: as §4, §5

[20] = test system: slender amaranth (Am); experiment: as above; assay type: in vivo; set-up: scale not given here; conditions: dose 1.6 g ai/10a, 14th day after treatment
Procedure: as §4, §5

[21] = test system: wheat (Tr); experiment: Test Example 5: crop plant selectivity by upland field soil treatment (wheat), phytotoxicity; assay type: in vivo; set-up: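 grade of crop injury; 5 = at least 90%; 4 = 70 to 90%; 3 = 50 to 70%; 2 = 30 to 50%; 1 = 10 to 30%; 0 = under 10%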; conditions: dose 6.3 g ai/10a, 21st day after application
Procedure: (§6) (Test on Crop Plant Selectivity by Upland Field Soil Treatment)
(§7) In a plastic pot (surface area: 600 cm^2) filled with sand, wheat (Tr), Diaitaria ciliaris (Di), green foxtail (Se), pale smartweed (Po), slender amaranth (Am), common lambsquarters (Ch) and China jute (Ab) were sown and covered with soil. […] The plants were then cultured in a green house, and the evaluation of the herbicidal effects and phytotoxicity was conducted on the 21st day after the application in accordance with the standards as identified in Table 47. Symbol—represents “not tested”.

[22] = test system: China jute (Ab); experiment: Test Example 5: crop plant selectivity by upland field soil treatment (wheat), herbicidal effects; assay type: in vivo; set-up: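 grade of growth control; 5 = at least 90%; 4 = 70 to 90%; 3 = 50 to 70%; 2 = 30 to 50%; 1 = 10 to 30%; 0 = under 10%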; conditions: dose 6.3 g ai/10a, 21st day after application
Procedure: as §6, §7

[23] = test system: common lambsquarters (Ch); experiment: as above; assay type: in vivo; set-up: scale not given here; conditions: dose 6.3 g ai/10a, 21st day after application
Procedure: as §6, §7

[24] = test system: green foxtail (Se); experiment: as above; assay type: in vivo; set-up: scale not given here; conditions: dose 6.3 g ai/10a, 21st day after application
Procedure: as §6, §7

[25] = test system: pale smartweed (Po); experiment: as above; assay type: in vivo; set-up: scale not given here; conditions: dose 6.3 g ai/10a, 21st day after application
Procedure: as §6, §7

[26] = test system: slender amaranth (Am); experiment: as above; assay type: in vivo; set-up: scale not given here; conditions: dose 6.3 g ai/10a, 21st day after application
Procedure: as §6, §7

[27] = 21st day after the application, index 0-5 of Table 47
[28] = 100 g of the active ingredient per 10 ares, evaluated on the 14th day after treatment
[29] = evaluated on the 21st day after application
[30] = 100 g active ingredient per 10 ares, evaluated 14th day after treatment

Row | Compound | Herbicidal effects Ec [1] | Herbicidal effects Sc [2] | Herbicidal effects Mo [3] | Herbicidal effects Di [4, 27] | Herbicidal effects Ec [5, 27] | Herbicidal effects Ch [6, 27] | Herbicidal effects Po [7, 27] | Herbicidal effects Ci [8, 27] | Herbicidal effects Am [9, 27] | Herbicidal effects Di [10, 28] | Herbicidal effects Ec [11, 28] | Herbicidal effects Ch [12, 28] | Herbicidal effects Po [13, 28] | Herbicidal effects Ci [14, 28] | Herbicidal effects Am [15, 28] | Phytotoxicity Tr [16] | Herbicidal effects Ab [17] | Herbicidal effects Ch [18] | Herbicidal effects Po [19] | Herbicidal effects Am [20] | further results
1 | CCCCCOC(=O)COc1cc(-c2ccc(C(F)(F)F)n(C)c2=O)c(F)cc1Cl [1-20] | 5 | 5 | 5 | 5 | 5 | 5 | 5 | 5 | 5 | 5 | 5 | 5 | 5 | 5 | 5 | 2 | 5 | 5 | 5 | 5 | 
2 | CCCC(Sc1cc(-c2ccc(C(F)(F)F)n(C)c2=O)c(F)cc1Cl)C(=O)OCC (centres unmarked) [1-48] | 5 | 5 | 5 |  |  |  |  |  |  | 5 | 5 | 5 | 5 | 5 | 5 | 2 | 5 | 5 | 5 | 5 | 
3 | CCCOC(=O)c1cc(-c2ccc(C(F)(F)F)n(C)c2=O)c(F)cc1Cl [1-158] | 5 | 5 | 5 | 5 | 5 | 5 | 5 | 5 | 5 | 5 | 5 | 5 | 5 | 5 | 5 | 2 | 5 | 5 | 5 | 5 | 
4 | C#CCN1C(=O)COc2cc(F)c(-c3cc(C)c(C(F)(F)F)n(C)c3=O)cc21 [Compound 2-2] | 5 | 5 | 5 |  |  |  |  |  |  |  |  |  |  |  |  |  |  |  |  |  | Herbicidal effects Di [4, 29]: 5; Herbicidal effects Ec [5, 29]: 5; Herbicidal effects Ch [6, 29]: 5; Herbicidal effects Po [7, 29]: 5; Herbicidal effects Ci [8, 29]: 5; Herbicidal effects Am [9, 29]: 5; Herbicidal effects Di [10, 30]: 5; Herbicidal effects Ec [11, 30]: 5; Herbicidal effects Ch [12, 30]: 5; Herbicidal effects Po [13, 30]: 5; Herbicidal effects Ci [14, 30]: 5; Herbicidal effects Am [15, 30]: 5; Phytotoxicity Tr [21]: 2; Herbicidal effects Ab [22]: 5; Herbicidal effects Ch [23]: 5; Herbicidal effects Se [24]: 5; Herbicidal effects Po [25]: 5; Herbicidal effects Am [26]: 5
5 | CCn1c(=O)sc2cc(F)c(-c3ccc(C(F)(F)F)n(C)c3=O)cc21 [Compound 3-7] | 5 | 5 | 5 |  |  |  |  |  |  |  |  |  |  |  |  | 2 | 5 | 5 | 5 | 5 | Herbicidal effects Di [4, 29]: 5; Herbicidal effects Ec [5, 29]: 5; Herbicidal effects Ch [6, 29]: 5; Herbicidal effects Po [7, 29]: 5; Herbicidal effects Ci [8, 29]: 5; Herbicidal effects Am [9, 29]: 5; Herbicidal effects Di [10, 30]: 5; Herbicidal effects Ec [11, 30]: 5; Herbicidal effects Ch [12, 30]: 5; Herbicidal effects Po [13, 30]: 5; Herbicidal effects Ci [14, 30]: 5; Herbicidal effects Am [15, 30]: 5
